# Data published in PMC8581430, “Peptide ligands targeting FGF receptors promote recovery from dorsal root crush injury via AKT/mTOR signaling” (Theranostics, 2021).
# Assays:
# [1] = system: ERK1/2 (phosphorylated) in DRG explants; test: Western blot of phosphorylated ERK1/2 in DRG explants; format: cell-based, rat; details: CH02 20 μM + BGJ398 2 μM, 4 h, n = 3
# From the text: Figure 6 Phosphoproteomic profiling of the intracellular signaling pathway used by CH02 for augmenting nerve regeneration. (A) GO biological process analysis of proteins corresponding to differentially expressed phosphorylated peptides. Ordinates indicate the enriched GO terms; abscissae represent the gene ratio; size of the dots indicates the number of proteins enriched in this biological process. (B) KEGG pathway analysis of proteins corresponding to differentially expressed phosphorylated peptides. Ordinates indicate the enriched pathway term; abscissae represent the gene ratio; size of the dots indicates number of proteins enriched in this pathway. […] (D-E) Quantification of p-ERK1/2 and p-AKT expression levels. n = 3 independent experiments. Relative protein expression level was quantified after normalization to the corresponding total proteins. […] (G-H) Quantification of p-ERK1/2 and p-AKT expression levels. n = 3 independent experiments. Relative protein expression level was quantified after normalization to the corresponding total proteins. […] The axon is shown in fluorescence (NF200) images. […] For quantification of axon length, neurons were immunostained using an antibody against β-tubulin. […] (N) Quantification of TUNEL-positive neurons (M) using ImageJ software (n = 5 for each condition; ***p < 0.001 by one-way ANOVA with Dunnett's test; mean ± SEM). […]
# primary DRG neurons = test: TUNEL assay of DRG neuron apoptosis induced by H2O2; format: cell-based, Sprague-Dawley rat; details: CH02 + inhibitor 24 h, then H2O2 12 h, n = 5
# Procedure: Figure 3 Effect of the CH02 peptide on axon growth and neuron survival. (A) Representative images of the CH02 peptide effect on axon growth in adult primary DRG neurons. DRG neurons were obtained from adult Sprague-Dawley rats. After 12-h of culture, neurons were stimulated with CH02 or bFGF for 48 h. Axonal outgrowth was assessed by immunocytochemistry using an antibody against β-tubulin, an axonal marker. Images were acquired from random neurons by fluorescence microscopy. Scale bars = 50 μm. (B) Quantification of the longest axon length of each neuron randomly selected in three independent experiments from (A), using Image-Pro Plus 6.0 software (n = 48 for each condition; *p < 0.05, ****p < 0.0001 by one-way ANOVA with Dunnett's test; ns, not significant; mean ± SD). […] The axon is shown in fluorescence (β3-tubulin) images. […] (D) Quantification of axon growth of DRG explants from (C) using the Neurite-J software (n=4 for each condition; *control vs. CH02; #control vs. bFGF; *p < 0.05, **p < 0.01, ***p < 0.001, #p < 0.05, ##p < 0.01 by two-way ANOVA with Dunnett's test; ns, not significant; mean ± SEM). […] LDH released from damaged cell membranes was detected by an LDH assay kit. The results are expressed as the mean ± SEM (**p < 0.01 by one-way ANOVA with Dunnett's test; ns, not significant, compared with the control group). […] Apoptotic neurons were detected by a TUNEL apoptosis assay kit. […]
Compound,effect of inhibitor on CH02-upregulated phosphorylated ERK [1],effect of inhibitor on protective effect of CH02 against H2O2-induced apoptosis (primary DRG neurons)
CCN1CCN(c2ccc(Nc3cc(N(C)C(=O)Nc4c(Cl)c(OC)cc(OC)c4Cl)ncn3)cc2)CC1 [BGJ398],counteracted CH02 effect on upregulating phosphorylated AKT and ERK levels,–
N#CC(=C(/N)Sc1ccccc1N)/C(C#N)=C(/N)Sc1ccccc1N [U0126],–,significantly reduced the protective effect of CH02 on neurons from apoptosis induced by H2O2
